Measurements reported in US5053333A, “Protease” (M & D Research Co., Ltd., priority 1988, dated 1991).
Where two headings read alike, the source gives them in different places. Numbered stars: 1 amine (or outer) side, 2 acyl side, 3 side chain; on linkers, the order of the positions; unused ones are H or OH. Square brackets hold non-standard residues; d marks the D form. Peptide text beside a SMILES is read from it. * marks the point of attachment. Sta = CC(C)C[C@H](N)[C@@H](O)CC(=O)O; AMC = Cc1cc(=O)oc2cc(N*)ccc12; Suc = O=C(CCC(=O)[*:2])[*:1]; Isovaleryl = CC(C)CC(=O)*; Cbz = O=C(OCc1ccccc1)*; Boc = CC(C)(C)OC(=O)*; CO = O=C([*:1])[*:2]; OBn = c1ccc(CO*)cc1

What was measured:
[1] = test system: protease specific for basic amino acid residue from Sporobolomyces odrus IFO 1597; assay: Behavior of Sporobolomyces protease against various inhibitors (residual activity); assay type: biochemical; conditions: 25° C. 30 minutes
[2] = test system: Benz-II (protease specific for basic amino acid residue); assay: Behavior of Benz-II against various inhibitors (residual activity); assay type: biochemical, Kluyveromyces lactis IFO 1903
[3] = test system: Benz-I (protease specific for basic amino acid residue); assay: Behavior of Benz-I against various inhibitors (residual activity); assay type: biochemical, Kluyveromyces lactis IFO 1903
[4] = test system: protease specific for basic amino acid residue from Sporobolomyces odrus IFO 1597; assay: Substrate specificity of Sporobolomyces protease with fluorescent substrates; assay type: biochemical; conditions: activity for Boc-Gln-Arg-Arg-MCA being 100; standard conditions
Method: A reaction mixture containing 50 μmol of tris hydrochloride buffer solution (pH 7.0), 10 mg of Lubrol PX, 0.5 μmol of calcium chloride, 0.1 μmol of Boc-Gln-Arg-Arg-MCA, wherein Boc represents a t-butyloxycalbonyl group while MCA represents 4-methylcoumarin-7-amide and the enzyme is allowed to react at 30° C. The fluorescence (excition wavelength: 380 nm, emission wavelength: 460 nm) originating from the 7-amino-4-methylcoumarin (AMC) thus formed is monitored. The amount of the enzyme capable of catalyzing the release of 1 nmol of AMC per one minute is defined as 1 U.
The activities of the enzyme for various fluorescent substrates were determined under standard reaction conditions.

[5] = test system: Benz-I (protease specific for basic amino acid residue); assay: Substrate specificity of Benz-I with fluorescent substrates; assay type: biochemical, Kluyveromyces lactis IFO 1903; conditions: activity for Boc-Gln-Arg-Arg-MCA being 100; standard conditions
Method: (§1) 1 ml of a reaction mixture containing 50 μmol of Tris-hydrochloride buffer (pH 7.0), 10 mg of Lubrol PX, 0.5 μmol of calcium chloride, 0.1 μmol of Boc-Gln-Arg-Arg-MCA, wherein Boc represents a t-butyloxycarbonyl group while MCA represents 4-methylcoumarin-7-amide and the enzyme is allowed to react at 30° C. The fluorescence (excition wavelength: 380 nm, emmision wavelength: 460 nm) originating from the 7-amino-4-methylcoumarin (AMC) thus formed is monitored with the lapse of time. The amount of the enzyme activity capable of catalyzing the release of 1 n mol of AMC per one minute is defined as 1 U. The specific activity is represented by U per mg of protein. The amount of the protein is determined by measurement the absorbance at […] as E^1% of protein being assumed to be 10.
(§2) The activities of Benz-I and Benz-II were determined under standard conditions with the use of various fluorescent substrates. The activity for each substrate was expressed by relative activity with the activity for Boc-Gln-Arg-Arg-MCA being 100.

[6] = test system: Benz-II (protease specific for basic amino acid residue); assay: Substrate specificity of Benz-II with fluorescent substrates; assay type: biochemical, Kluyveromyces lactis IFO 1903; conditions: activity for Boc-Gln-Arg-Arg-MCA being 100; standard conditions
Method: as §1, §2

[7] = inhibitor 5 mM, 25° C. 30 minutes, control lot = 100
[8] = inhibitor 1 mM, 25° C. 30 minutes, control lot = 100
[9] = inhibitor 10 μM, 25° C. 30 minutes, control lot = 100
[10] = inhibitor 0.1%, 25° C. 30 minutes, control lot = 100
[11] = inhibitor 0.2 mM, 25° C. 30 minutes, control lot = 100
[12] = inhibitor 4 M, 25° C. 30 minutes, control lot = 100

CCCCC(NC(=O)C=[N+]=[N-])C(=O)OC (racemic) [diazoacetyl-DL-norleucine methyl ester]
relative activity (residual) ([1]; Ca2+ +, inhibitor 5 mM): 72%
Residual activity of Benz-II [2, 7]: 73
Residual activity of Benz-I [3, 7]: 85

O[C@H](CS)[C@H](O)CS (racemic) [dithiothreitol]
relative activity (residual) ([1]; Ca2+ +, inhibitor 1 mM): 97%
Residual activity of Benz-II [2, 8]: 128
Residual activity of Benz-I [3, 8]: 96

OCCS [2-mercaptoethanol]
relative activity (residual) ([1]; Ca2+ +, inhibitor 1 mM): 95%
Residual activity of Benz-II [2, 8]: 153
Residual activity of Benz-I [3, 8]: 112

Cc1cc(=O)oc2cc(NC(=O)[C@@H](N)CCCNC(=N)N)ccc12 [Arg--MCA]
Activity (relative) for substrate [4]: < 1%

Cc1cc(=O)oc2cc(NC(=O)[C@H](CCCNC(=N)N)NC(=O)[C@@H]3CCCN3C(=O)CNC(=O)[C@H](C)NC(=O)OC(C)(C)C)ccc12 [Boc--Ala--Gly--Pro--Arg--MCA] (Boc-AGPR-{AMC})
Relative activity of Benz-I for substrate [5]: 1.9
Activity (relative) for substrate [4]: 1%
Relative activity of Benz-II for substrate [6]: 1.6

Cc1cc(=O)oc2cc(NC(=O)[C@H](CCCNC(=N)N)NC(=O)[C@@H]3CCCN3C(=O)[C@H](CC(=O)OCc3ccccc3)NC(=O)OC(C)(C)C)ccc12 [Boc--Asp(OBzl)--Pro--Arg--MCA] (Boc-Asp(OBn)-Pro-Arg-{AMC})
Relative activity of Benz-I for substrate [5]: 12.3
Activity (relative) for substrate [4]: 5%
Relative activity of Benz-II for substrate [6]: 7.8

Cc1cc(=O)oc2cc(NC(=O)[C@H](CCCNC(=N)N)NC(=O)[C@H](CCCNC(=N)N)NC(=O)[C@H](CCC(N)=O)NC(=O)OC(C)(C)C)ccc12 [Boc--Gln--Arg--Arg--MCA, Boc-Gln-Arg-Arg-MCA] (Boc-Gln-Arg-Arg-{AMC})
Relative activity of Benz-I for substrate [5]: 100
Activity (relative) for substrate [4]: 100%
Relative activity of Benz-II for substrate [6]: 100

Cc1cc(=O)oc2cc(NC(=O)[C@H](CCCCN)NC(=O)[C@H](CCCCN)NC(=O)[C@H](CCC(=O)O)NC(=O)OC(C)(C)C)ccc12 [Boc--Glu--Lys--Lys--MCA] (Boc-Glu-Lys-Lys-{AMC})
Relative activity of Benz-I for substrate [5]: 1.3
Activity (relative) for substrate [4]: 0%
Relative activity of Benz-II for substrate [6]: 0.9

Cc1cc(=O)oc2cc(NC(=O)[C@H](CCCNC(=N)N)NC(=O)[C@H](CCCNC(=N)N)NC(=O)CNC(=O)OC(C)(C)C)ccc12 [Boc--Gly--Arg--Arg--MCA]
Relative activity of Benz-I for substrate [5]: 19.8
Activity (relative) for substrate [4]: 32%
Relative activity of Benz-II for substrate [6]: 19.7

CC[C@H](C)[C@H](NC(=O)OC(C)(C)C)C(=O)N[C@@H](CCC(=O)O)C(=O)NCC(=O)N[C@@H](CCCNC(=N)N)C(=O)Nc1ccc2c(C)cc(=O)oc2c1 [Boc--Ile--Glu--Gly--Arg--MCA] (Boc-IEGR-{AMC})
Activity (relative) for substrate [4]: 5%

Cc1cc(=O)oc2cc(NC(=O)[C@H](CCCNC(=N)N)NC(=O)CNC(=O)[C@H](CC(C)C)NC(=O)OC(C)(C)C)ccc12 [Boc--Leu--Gly--Arg--MCA] (Boc-Leu-Gly-Arg-{AMC})
Activity (relative) for substrate [4]: 1%

Cc1cc(=O)oc2cc(NC(=O)[C@H](CCCCN)NC(=O)[C@H](CC(C)C)NC(=O)[C@@H](NC(=O)OC(C)(C)C)C(C)C)ccc12 [Boc--Val--Leu--Lys--MCA] (Boc-Val-Leu-Lys-{AMC})
Activity (relative) for substrate [4]: 0%

Cc1cc(=O)oc2cc(NC(=O)[C@H](CCCNC(=N)N)NC(=O)c3ccccc3)ccc12 [Bz--Arg--MCA]
Activity (relative) for substrate [4]: 0%

CC(C)C[C@H](NC(=O)[C@H]1O[C@@H]1C(=O)O)C(=O)NCCCCNC(=N)N [E-64]
relative activity (residual) ([1]; Ca2+ +, inhibitor 10 μM): 100%
Residual activity of Benz-II [2, 9]: 96
Residual activity of Benz-I [3, 9]: 99

Cc1cc(=O)oc2cc(NC(=O)[C@@H](N)CC(C)C)ccc12 [Leu--MCA]
Activity (relative) for substrate [4]: < 1%

CCN1C(=O)C=CC1=O [N-ethylmaleimide]
relative activity (residual) ([1]; Ca2+ +, inhibitor 1 mM): 125%
Residual activity of Benz-II [2, 8]: 94
Residual activity of Benz-I [3, 8]: 101

Cc1cc(=O)oc2cc(NC(=O)[C@H](CCCNC(=N)N)NC(=O)[C@H](Cc3ccccc3)NC(=O)[C@@H]3CCCN3)ccc12 [Pro--Phe--Arg--MCA] (H-Pro-Phe-Arg-{AMC})
Activity (relative) for substrate [4]: 0%

Cc1cc(=O)oc2cc(NC(=O)[C@H](Cc3ccccc3)NC(=O)[C@@H]3CCCN3C(=O)[C@H](C)NC(=O)[C@H](C)NC(=O)CCC(=O)O)ccc12 [Suc--Ala--Ala--Pro--Phe--MCA] (Suc-AAPF-{AMC})
Activity (relative) for substrate [4]: < 1%

Cc1cc(=O)oc2cc(NC(=O)[C@H](C)NC(=O)[C@@H]3CCCN3C(=O)[C@H](C)NC(=O)CCC(=O)O)ccc12 [Suc--Ala--Pro--Ala--MCA] (Suc-Ala-Pro-Ala-{AMC})
Activity (relative) for substrate [4]: 0%

Cc1cc(=O)oc2cc(NC(=O)[C@@H]3CCCN3C(=O)CNC(=O)CCC(=O)O)ccc12 [Suc--Gly--Pro--MCA] (Suc-Gly-Pro-{AMC})
Activity (relative) for substrate [4]: 0%

Cc1cc(=O)oc2cc(NC(=O)[C@H](Cc3ccc(O)cc3)NC(=O)[C@@H](NC(=O)[C@H](CC(C)C)NC(=O)[C@H](CC(C)C)NC(=O)CCC(=O)O)C(C)C)ccc12 [Suc--Leu--Leu--Val--Tyr--MCA] (Suc-LLVY-{AMC})
Activity (relative) for substrate [4]: 0%

Cc1cc(=O)oc2cc(NC(=O)[C@H](CCCNC(=N)N)NC(=O)[C@H](CCCNC(=N)N)NC(=O)OCc3ccccc3)ccc12 [Z--Arg--Arg--MCA] (Cbz-Arg-Arg-{AMC})
Activity (relative) for substrate [4]: 0%

CC(C)[C@H](NC(=O)[C@H](CCCNC(=N)N)NC(=O)N[C@@H](Cc1ccccc1)C(=O)O)C(=O)N[C@H](C=O)CCCNC(=N)N [antipain] ({Phe-CO}-Arg-Val-Arg-aldehyde)
relative activity (residual) ([1]; Ca2+ +, inhibitor 10 μM): 70%
Residual activity of Benz-II [2, 9]: 88
Residual activity of Benz-I [3, 9]: 89

N=C(N)c1ccccc1 [benzamidine]
relative activity (residual) ([1]; Ca2+ +, inhibitor 1 mM): 82%
Residual activity of Benz-II [2, 8]: 82
Residual activity of Benz-I [3, 8]: 79

CC(C)C[C@H](NC(=O)[C@@H](O)[C@H](N)Cc1ccccc1)C(=O)O [bestatin]
relative activity (residual) ([1]; Ca2+ +, inhibitor 10 μM): 97%
Residual activity of Benz-II [2, 9]: 97
Residual activity of Benz-I [3, 9]: 95

NC(=O)CI [iodoacetamide]
relative activity (residual) ([1]; Ca2+ +, inhibitor 1 mM): 96%
Residual activity of Benz-II [2, 8]: 87
Residual activity of Benz-I [3, 8]: 92

O=C(O)CI [iodoacetic acid]
Residual activity of Benz-II [2]: 93
Residual activity of Benz-I [3]: 99

CC(=O)N[C@@H](CC(C)C)C(=O)N[C@@H](CC(C)C)C(=O)N[C@H](C=O)CCCNC(=N)N [leupeptin]
relative activity (residual) ([1]; Ca2+ +, inhibitor 10 μM): 92%
Residual activity of Benz-II [2, 9]: 96
Residual activity of Benz-I [3, 9]: 93

c1cnc2c(c1)ccc1cccnc12 [o-phenanthroline]
relative activity (residual) ([1]; Ca2+ --, inhibitor 1 mM): 91%
Residual activity of Benz-II [2, 8]: 86
Residual activity of Benz-I [3, 8]: 96

CC(C)CC(=O)N[C@H](C(=O)N[C@H](C(=O)N[C@@H](CC(C)C)[C@@H](O)CC(=O)N[C@@H](C)C(=O)N[C@@H](CC(C)C)[C@@H](O)CC(=O)O)C(C)C)C(C)C [pepstatin A] (Isovaleryl-VV[Sta]A[Sta]-OH)
relative activity (residual) ([1]; Ca2+ +, inhibitor 10 μM): 104%
Residual activity of Benz-II [2, 9]: 96
Residual activity of Benz-I [3, 9]: 100

O=S(=O)(F)Cc1ccccc1 [phenylmethanesulfonyl fluoride]
relative activity (residual) ([1]; Ca2+ +, inhibitor 1 mM): 112%
Residual activity of Benz-II [2, 8]: 103
Residual activity of Benz-I [3, 8]: 107

CC(C)C[C@H](NP(=O)(O)O[C@@H]1O[C@@H](C)[C@H](O)[C@@H](O)[C@H]1O)C(=O)N[C@@H](Cc1c[nH]c2ccccc12)C(=O)O [phosphoramidon]
relative activity (residual) ([1]; Ca2+ +, inhibitor 10 μM): 100%
Residual activity of Benz-II [2, 9]: 93
Residual activity of Benz-I [3, 9]: 101

CCCCCCCCCCCCOS(=O)(=O)[O-].[Na+] [sodium dodecyl sulfate]
Residual activity of Benz-II [2, 10]: 91
Residual activity of Benz-I [3, 10]: 94

Cc1ccc(S(=O)(=O)NC(CCCCN)C(=O)CCl)cc1 (stereo not drawn) [tosyllysine chloromethyl ketone]
relative activity (residual) ([1]; Ca2+ +, inhibitor 0.2 mM): 108%
Residual activity of Benz-II [2, 11]: 95
Residual activity of Benz-I [3, 11]: 98

NC(N)=O [urea]
Residual activity of Benz-II [2, 12]: 29
Residual activity of Benz-I [3, 12]: 23

chymostatin
relative activity (residual) ([1]; Ca2+ +, inhibitor 10 μM): 98%
Residual activity of Benz-II [2, 9]: 99
Residual activity of Benz-I [3, 9]: 98
